{"source": "patent US9993570B2", "about": "“Radiolabeled tracers for poly (ADP-ribose) polymerase-1 (PARP-1), methods and uses therefor” (Washington University, priority 2014, dated 2018)", "key": {"[1]": {"experiment": "Metabolic stability of [18F]WC-4-138 in mice (percent parent by HPLC)", "type": "in vivo", "settings": "C57BL/6J mice", "method": "In these experiments, the metabolic stability of [^18]-WC-4-138 was assessed after injecting 400 μCi into the tail veins of adult male C57BL/6J mice (Jackson Laboratory). Mice were sacrificed by cervical dislocation 5 or 30 minutes post-injection. […] The plasma was separated from the red blood cells by centrifugation at 14000 rpm. Plasma (100 μl) was mixed with acetonitrile at a 1:1.5 ratio and centrifuged at 14000 rpm. Radioactivity associated with the red blood cell pellet, whole plasma, and acetonitrile-soluble and insoluble fractions was measured. The liver of each animal was also collected at the indicated times and frozen on dry ice. Livers were homogenized in 2 ml acetonitrile and 1 ml of the homogenized liver was centrifuged at 14000 rpm. Radioactivity associated with the supernatant and pellet was measured. Acetonitrile-soluble plasma or liver supernatant (100 μl) was mixed at a 1:1 ratio with water and separated by reverse phase HPLC. The parent compound was also separated by HPLC as a reference. The radioactivity associated with each HPLC fraction was measured. The percent parent compound of each sample was calculated as the portion radioactivity associated with the HPLC fractions expected to contain the parent compound."}, "[2]": {"experiment": "Estimated human dosimetry from mouse biodistribution study (MIRD)", "text": "Estimates were obtained from the organ residence times calculated from the mouse biodistribution data, shown in Table 1, using standard MIRD methodology."}}, "data": [{"smiles": "O=C1NCCn2c(-c3ccc(OCC[18F])cc3)nc3cccc1c32", "note": "[[^18F]12]", "values": [{"measurement": "percent parent compound relative to the reference compound, blood", "setting": "[1]; 5 minutes post-injection", "result": 50, "unit": "%"}, {"measurement": "percent parent compound relative to the reference compound, liver", "setting": "[1]; 5 minutes post-injection", "result": "about 80%"}, {"measurement": "percent parent compound relative to the reference compound, blood", "setting": "[1]; 30 minutes post-injection", "result": "about 10%"}, {"measurement": "percent parent compound relative to the reference compound, liver", "setting": "[1]; 30 minutes post-injection", "result": "about 70%"}, {"measurement": "Estimated human dosimetry, Adrenals", "setting": "[2]; Female", "result": 0.052, "unit": "rad/mCi"}, {"measurement": "Estimated human dosimetry, Brain", "setting": "[2]; Female", "result": 0.022, "unit": "rad/mCi"}, {"measurement": "Estimated human dosimetry, Breasts", "setting": "[2]; Female", "result": 0.019, "unit": "rad/mCi"}, {"measurement": "Estimated human dosimetry, Effective Dose", "setting": "[2]; Female", "result": 0.057, "unit": "rem/mCi"}, {"measurement": "Estimated human dosimetry, Effective Dose Equivalent", "setting": "[2]; Female", "result": 0.075, "unit": "rad/mCi"}, {"measurement": "Estimated human dosimetry, Gallbladder Wall", "setting": "[2]; Female", "result": 0.033, "unit": "rad/mCi"}, {"measurement": "Estimated human dosimetry, Heart Wall", "setting": "[2]; Female", "result": 0.047, "unit": "rad/mCi"}, {"measurement": "Estimated human dosimetry, Kidneys", "setting": "[2]; Female", "result": 0.093, "unit": "rad/mCi"}, {"measurement": "Estimated human dosimetry, LLI Wall", "setting": "[2]; Female", "result": 0.036, "unit": "rad/mCi"}, {"measurement": "Estimated human dosimetry, Liver", "setting": "[2]; Female", "result": 0.065, "unit": "rad/mCi"}, {"measurement": "Estimated human dosimetry, Lungs", "setting": "[2]; Female", "result": 0.045, "unit": "rad/mCi"}, {"measurement": "Estimated human dosimetry, Muscle", "setting": "[2]; Female", "result": 0.035, "unit": "rad/mCi"}, {"measurement": "Estimated human dosimetry, Osteogenic Cells", "setting": "[2]; Female", "result": 0.203, "unit": "rad/mCi"}, {"measurement": "Estimated human dosimetry, Ovaries", "setting": "[2]; Female", "result": 0.045, "unit": "rad/mCi"}, {"measurement": "Estimated human dosimetry, Pancreas", "setting": "[2]; Female", "result": 0.064, "unit": "rad/mCi"}, {"measurement": "Estimated human dosimetry, Red Marrow", "setting": "[2]; Female", "result": 0.069, "unit": "rad/mCi"}, {"measurement": "Estimated human dosimetry, Skin", "setting": "[2]; Female", "result": 0.019, "unit": "rad/mCi"}, {"measurement": "Estimated human dosimetry, Small Intestine", "setting": "[2]; Female", "result": 0.030, "unit": "rad/mCi"}, {"measurement": "Estimated human dosimetry, Spleen", "setting": "[2]; Female", "result": 0.133, "unit": "rad/mCi"}, {"measurement": "Estimated human dosimetry, Stomach Wall", "setting": "[2]; Female", "result": 0.030, "unit": "rad/mCi"}, {"measurement": "Estimated human dosimetry, Thymus", "setting": "[2]; Female", "result": 0.026, "unit": "rad/mCi"}, {"measurement": "Estimated human dosimetry, Thyroid", "setting": "[2]; Female", "result": 0.038, "unit": "rad/mCi"}, {"measurement": "Estimated human dosimetry, Total Body", "setting": "[2]; Female", "result": 0.039, "unit": "rad/mCi"}, {"measurement": "Estimated human dosimetry, ULI Wall", "setting": "[2]; Female", "result": 0.031, "unit": "rad/mCi"}, {"measurement": "Estimated human dosimetry, Urinary Bladder Wall", "setting": "[2]; Female", "result": 0.301, "unit": "rad/mCi"}, {"measurement": "Estimated human dosimetry, Uterus", "setting": "[2]; Female", "result": 0.053, "unit": "rad/mCi"}, {"measurement": "Estimated human dosimetry, Adrenals", "setting": "[2]; Male", "result": 0.043, "unit": "rad/mCi"}, {"measurement": "Estimated human dosimetry, Brain", "setting": "[2]; Male", "result": 0.019, "unit": "rad/mCi"}, {"measurement": "Estimated human dosimetry, Effective Dose", "setting": "[2]; Male", "result": 0.047, "unit": "rem/mCi"}, {"measurement": "Estimated human dosimetry, Effective Dose Equivalent", "setting": "[2]; Male", "result": 0.062, "unit": "rad/mCi"}, {"measurement": "Estimated human dosimetry, Gallbladder Wall", "setting": "[2]; Male", "result": 0.028, "unit": "rad/mCi"}, {"measurement": "Estimated human dosimetry, Heart Wall", "setting": "[2]; Male", "result": 0.038, "unit": "rad/mCi"}, {"measurement": "Estimated human dosimetry, Kidneys", "setting": "[2]; Male", "result": 0.083, "unit": "rad/mCi"}, {"measurement": "Estimated human dosimetry, LLI Wall", "setting": "[2]; Male", "result": 0.029, "unit": "rad/mCi"}, {"measurement": "Estimated human dosimetry, Liver", "setting": "[2]; Male", "result": 0.050, "unit": "rad/mCi"}, {"measurement": "Estimated human dosimetry, Lungs", "setting": "[2]; Male", "result": 0.035, "unit": "rad/mCi"}, {"measurement": "Estimated human dosimetry, Muscle", "setting": "[2]; Male", "result": 0.026, "unit": "rad/mCi"}, {"measurement": "Estimated human dosimetry, Osteogenic Cells", "setting": "[2]; Male", "result": 0.155, "unit": "rad/mCi"}, {"measurement": "Estimated human dosimetry, Pancreas", "setting": "[2]; Male", "result": 0.055, "unit": "rad/mCi"}, {"measurement": "Estimated human dosimetry, Red Marrow", "setting": "[2]; Male", "result": 0.061, "unit": "rad/mCi"}, {"measurement": "Estimated human dosimetry, Skin", "setting": "[2]; Male", "result": 0.016, "unit": "rad/mCi"}, {"measurement": "Estimated human dosimetry, Small Intestine", "setting": "[2]; Male", "result": 0.026, "unit": "rad/mCi"}, {"measurement": "Estimated human dosimetry, Spleen", "setting": "[2]; Male", "result": 0.110, "unit": "rad/mCi"}, {"measurement": "Estimated human dosimetry, Stomach Wall", "setting": "[2]; Male", "result": 0.024, "unit": "rad/mCi"}, {"measurement": "Estimated human dosimetry, Testes", "setting": "[2]; Male", "result": 0.022, "unit": "rad/mCi"}, {"measurement": "Estimated human dosimetry, Thymus", "setting": "[2]; Male", "result": 0.020, "unit": "rad/mCi"}, {"measurement": "Estimated human dosimetry, Thyroid", "setting": "[2]; Male", "result": 0.033, "unit": "rad/mCi"}, {"measurement": "Estimated human dosimetry, Total Body", "setting": "[2]; Male", "result": 0.031, "unit": "rad/mCi"}, {"measurement": "Estimated human dosimetry, ULI Wall", "setting": "[2]; Male", "result": 0.025, "unit": "rad/mCi"}, {"measurement": "Estimated human dosimetry, Urinary Bladder Wall", "setting": "[2]; Male", "result": 0.220, "unit": "rad/mCi"}]}]}
